The text below walks through data of patent publication US8067391B2, “ODCase inhibitors for the treatment of malaria” (University Health Network, priority 2005, dated 2011).

Read-outs that look alike come from different tables or passages of the source.

One data set relates to Plasmodium vivax. Description: anti-malarial activity against Plasmodium vivax. The class given is cell-based. Particulars: range stated for the group of compounds.
A further data set deals with Plasmodium falciparum. The data set is described as follows: anti-malarial activity against Plasmodium falciparum. The class given is cell-based. Conditions: read-out: IC50 anti-malarial activity. The method, then: (§1) Assays comparing the antiplasmodial activities of the compounds of the invention were performed using the SYBR-Green method.^xlviii Briefly, the compounds were dissolved in DMSO to achieve a concentration of 10 mg/mL. Fifty microliters of RPMI-A were added to each well in a 96-well plate before 40 μL of RPMI-A and 10 μL of compound solution were added to the first well, the contents of the well were mixed, 50 μL were removed and added to the next well in the series and the process was repeated until the next-to-last well was reached. This produced a plate with a series of two-fold dilutions across it, except for the last well in the series, which contained RPMI-A alone. Fifty microliters of parasite culture (2% hematocrit, 2% parasitemia) were added to each well and the plates were then incubated at 37° C. in 95% N2, 3% CO2, and 2% O2 for 72 hrs.

The subject of data set [1] is P. burghei. The data set is described as follows: mouse efficacy study against plasmodia. In kind it is in vivo, mice. From the text:
P. chabaudi chabaudi (Pcc) AS infection: They are two different species of mouse malaria that are used commonly in mice efficacy studies: P. chabaudi chabaudi AS and P. burghei. Pcc strain induces larger load of parasites and even some mouse strains die. If P. burghei strain is given to the mouse, they develop fewer parasites but become very sick. Pcc strain provides an opportunity in mice to observe if parasite numbers are reduced in the context of a reasonably healthy animal. Thus, Pcc strain was used in the efficacy model.
Blood-stage PCCAS was maintained in as described (Podoba J E and Stevenson, 1991)[2]. Infections in experimental animals were initiated by intraperitoneal injection of 1×10^6 P. chabaudi chabaudi AS-infected erythrocytes (PCCAS). Course of infection was monitored daily for 18 days by determining parasitemia on thin-blood smears stained with Diff Quik (American Scientific Products, Mississauga, ON). Compounds to be assayed were made up in RPMI 1640 at the concentration required to deliver the target dose in a total volume of 0.5 mL and were then filter sterilized. Compounds were stored at 4° C. prior to use. After infection the presence of parasites in the peripheral circulation was monitored daily until parasites were first observed. The mice were then injected daily for three consecutive days with either RPMI 1640 alone or compound dissolved in RPMI. The health of the animals was assessed daily and the parasitemia determined by examining blood films.
(§2) Efficacy studies in mice were performed using Ii to test the in vivo potential of this compound. Mice were infected with P. burghei, a mouse strain similar to the human malaria parasite P. falciparum. P. burghei strain is approximately 20 times less sensitive to Ii, so the dose in mice had to be adjusted accordingly. Parasitemia was monitored in mice after the drug was given at two different doses: 0.6 mg/mouse (n=3) and 6 mg/mouse (n=3). There was a control group of mice without any treatment with Ii.

Data set [2] concerns P. burghei. The data set is described as follows: sensitivity of P. burghei strain compared with P. falciparum. Conditions: P. burghei strain vs P. falciparum. As to the method:
as §2

The next data set has as its system ODCase. The data set is described as follows: ODCase inhibition (isothermal titration calorimetry enzymology). In kind it is biochemical. The method, then:
(a) Enzymology. ODCase from M. thermoautotrophicum (Mt) and compound Id were incubated at room temperature in the reaction buffer (50 mM Tris, 20 mM DTT, 40 mM NaCl, pH 7.5). The concentrations of the Id were 1×, 2.5×, 3.5× and 5× of the enzyme concentration, corresponding to 50, 125, 175 and 250 μM, respectively. The remaining enzyme activity in the enzyme-inhibitor reaction mixture was measured after 30 min, 2, 4, 8, 12, 24, 48 and 96 hours after the onset of incubation. Aliquots (1 μL) were removed from the reaction mixture and diluted to 2.5 mL with the assay buffer (50 mM Tris, 1 mM DTT, pH 7.5). […]
The inhibition of ODCase from P. falciparum (Pf) was assayed in a similar manner. […] The remaining activity of ODCase was measured at 37° C. for up to 48 hrs. […]
The Pf ODCase concentration in each of the samples (15, 30, and 45 min incubation times) was 60 nM. […] The remaining enzyme activities in these samples were measured by injecting 3 μL of 2.85 mM OMP. The enzyme activity at t=0 was measured by injecting OMP and 6-iodo-UMP simultaneously into the 60 nM enzyme solution in the ITC sample chamber. […] The control sample with 60 nM enzyme was incubated for 15-45 minutes at 37° C., and the enzyme activity was measured after the addition of 3 μL of 2.85 mM OMP. […]
Half-time of inactivation t1/2 was calculated from: t1/2=0.693/kinact (3)

Data set [3] deals with human primary blood cells (PBLs). The data set is described as follows: human primary blood cell assay (H-3 incorporation, Con A stimulated). In kind it is cell-based. As to the method: The following procedure was used to conduct human primary blood cell assays. Added 3 ml of PBS (OCI media facility) to 3 ml of serum depleted blood from normal, adult, human controls. Pipetted 6 ml Ficoll-Paque Plus (Amersham 17-1440-03) into a 15 ml centrifuge tube. Overlaid with PBS diluted blood. Centrifuged at 2500 rpm for 10 minutes at room temperature, no brake.
Removed and discarded upper (PBS) phase. Transferred cells at the PBS/Ficoll interface to a clean 15 ml centrifuge tube. Added 10 mL PBS. Then, centrifuged at 1250 rpm for 10 minutes at room temperature.
Discarded the supernatant and resuspended the cell pellet in Iscove's Modified Dulbecco's Medium (Gibco 12440 prepared by OCI Media facility) supplemented with 5.5×10^-5M 2ME (Fisher 03446-100) and 5% FBS (Hyclone SH-30397-03 Lot # KPG21604). Plated cells at 50,000 cells per well in 96 well flat bottom plates (Costar 3595). Added Concanavalin A (Pharmacia 17-0450-01) to a final concentration of 1.5 micro gm/ml. All conditions were set in triplicate.
Included untreated (Con A alone) controls. Cultured cells for 48 hours or 72 hours at 37° C. with 5% CO2 and 90% relative humidity. Added 0.5 uCi H-3 (Perkin Elmer NET027A) per well in 10 microL for the last 8 hours of the culture period. […]
Dried plates for 1 hour at 37° C. […] Data was collected by reading the radioactivity counts.

Data set [4] can be described thus: toxicity to Vero cell line. The class given is cell-based. Conditions: African green monkey, Vero cells.
Another data set relates to P. falciparum ItG. Description: antiplasmodial activity, SYBR-Green method, P. falciparum ItG isolate. Conditions: Plasmodium falciparum, in vitro, FIG. 4, read-out: IC50 anti-plasmodial activity. In kind it is cell-based. As to the method:
as §1
(§3) CHO cells (ATCC, Manassas, Va.) were grown in RPMI-1640 supplemented with 10% fetal calf serum (Sigma, St. Louis, Mo.), 25 mM HEPES and gentimicin (RPMI-10). Cells were seeded in 96 well plates and grown to 50% confluency in 100 μL of RPMI-10 per well prior to the addition of either DMSO alone, or a test compound dissolved in DMSO to a concentration of 10 mg/mL. […]

The nature of data set [5]: CHO cell toxicity assay (MTT). The class given is cell-based. Conditions: Chinese hamster, CHO cells; CHO cell line. As to the method: CHO cells (ATCC, Manassas, Va.) were grown in RPMI-1640 supplemented with 10% fetal calf serum (Sigma, St. Louis, Mo.), 25 mM HEPES and gentimicin (RPMI-10). Cells were seeded in 96 well plates and grown to 50% confluency in 100 μL of RPMI-10 per well prior to the addition of either DMSO alone, or a test compound dissolved in DMSO to a concentration of 10 mg/mL. Compound gradients were prepared by adding 90 μL of RPMI-10 mixed with 10 μL of compound solution to the first well in the series, mixing, transferring 100 μL to next well and repeating until the next-to-last well was reached. After 48 hrs, the viability of the cells was determined by discarding the media in the wells and adding 100 μL of 10 mg/mL of 3-[4,5-dimethylthiazol-2-yl]-2,5-diphenyltetrazolium bromide (MTT, Sigma, St. Louis, Mo.) in RPMI-10, incubating the plates for an additional hour, and then removing the media and adding 100 μL of DMSO and reading the absorbance at 650 nm.^xlix The IC50 values of individual compounds were determined applying a non-linear regression analysis of the dose-response curve using the computer program SigmaPlot (Jandel Scientific).

Data set [6] in a line: toxicity to human fibroblast (HFF) cell line. The class given is cell-based. Conditions: human fibroblast (HFF) cells.
Another data set concerns P. falciparum 3D7. Description: antiplasmodial activity, SYBR-Green method, P. falciparum 3D7 isolate. In kind it is cell-based. Particulars: Plasmodium falciparum, in vitro, FIG. 4, read-out: IC50 anti-plasmodial activity. As to the method:
as §1, §3

[7] abbreviates: range stated for the group of compounds.

For `Nc1cc(=O)[nH]c(=O)n1[C@@H]1O[C@H](CO)[C@@H](O)[C@H]1O` [Compound Ic, 6-Amino uridine], the IC50 in the data set with Plasmodium vivax and in the data set with Plasmodium falciparum (setting [7]) was 20 to 2000 µM throughout.

With `COC(=O)c1cc(=O)[nH]c(=O)n1[C@@H]1O[C@H](CO)[C@@H](O)[C@H]1O` [Compound It, 6-Methoxycarbonyl uridine], the IC50 with Plasmodium vivax and with Plasmodium falciparum (setting [7]) was 20 to 2000 µM in each case.

In the case of `N#Cc1cc(=O)[nH]c(=O)n1[C@@H]1O[C@H](CO)[C@@H](O)[C@H]1O` [Ia, 6-Cyanouridine], the IC50 with Plasmodium vivax and in the data set on Plasmodium falciparum (setting [7]) was 20 to 2000 µM throughout.

For `N#Cc1cc(=O)[nH]c(=O)n1[C@@H]1O[C@H](COP(=O)(O)O)[C@@H](O)[C@H]1O` [Ib, 6-Cyanouridine-5′-monophosphate], the IC50 with Plasmodium vivax and with Plasmodium falciparum was 20 to 2000 µM throughout.

`[N-]=[N+]=Nc1cc(=O)[nH]c(=O)n1[C@@H]1O[C@H](CO)[C@@H](O)[C@H]1O` [Id, 6-Azido uridine]: the IC50 with Plasmodium vivax and with Plasmodium falciparum (setting [7]) was 20 to 2000 µM in each case.

Turning to `Nc1cc(=O)[nH]c(=O)n1[C@@H]1O[C@H](COP(=O)(O)O)[C@@H](O)[C@H]1O` [Ie, 6-Amino uridine-5′-O-monophosphate], the IC50 in the data set on Plasmodium vivax and in the data set on Plasmodium falciparum (setting [7]) was 20 to 2000 µM in each case.

As for `[N-]=[N+]=Nc1cc(=O)[nH]c(=O)n1[C@@H]1O[C@H](COP(=O)(O)O)[C@@H](O)[C@H]1O` [If, 6-Azido uridine-5′-O-monophosphate], the IC50 in the data set on Plasmodium vivax and in the data set with Plasmodium falciparum (setting [7]) was 20 to 2000 µM in each case.

Regarding `O=c1cc(I)n([C@@H]2O[C@H](CO)[C@@H](O)[C@H]2O)c(=O)[nH]1` [Ii, 6-Iodo-uridine], in the data set with P. burghei [1] (mice infected with P. burghei, 0.6 and 6 mg/mouse, vs untreated controls, dose-dependent, FIG. 5), the parasitemia in mice result was “decreased parasitemia”. Moreover, the survival rate entry in the data set with P. burghei [1] (mice infected with P. burghei, treated vs controls, FIG. 6) is on record as “longer survival time”. The “survival, multiple dosing, higher doses” value with P. burghei [1] (mouse efficacy study with multiple dosing, vs no drug, FIG. 7) is “increased survival”. For the same compound, the “times less sensitive than P. falciparum” value in the data set on P. burghei [2] is on record as “approximately 20 times”. Besides, the “type of ODCase inhibition” value with ODCase was “covalent inhibitor”. Further, the “toxicity not observed up to” value in data set [3] is recorded as > 200 mM. Besides, the CC50 in [4] was > 300 µM. In addition, the IC50 is 4.4 ± 1.3 µM in the data set with P. falciparum ItG, > 300 µM in [6] and 6.2 ± 0.7 µM in the data set with P. falciparum 3D7. In [5], this compound registered an IC50 at 48 h of 366 ± 45 µM.

Consider `O=c1cc(I)n([C@@H]2O[C@H](COP(=O)(O)O)[C@@H](O)[C@H]2O)c(=O)[nH]1` [Ij, 6-Iodo uridine-5′-O-monophosphate], for which the IC50 in the data set with Plasmodium vivax and in the data set on Plasmodium falciparum (setting [7]) was 20 to 2000 µM throughout.

As for `Nc1c(F)c(=O)[nH]c(=O)n1[C@@H]1O[C@H](CO)[C@@H](O)[C@H]1O` [In, 5-Fluoro-6-amino uridine], the IC50 in the data set on Plasmodium vivax and in the data set on Plasmodium falciparum (setting [7]) was 20 to 2000 µM in each case.

Turning to `[N-]=[N+]=Nc1c(F)c(=O)[nH]c(=O)n1[C@@H]1O[C@H](CO)[C@@H](O)[C@H]1O` [Io, 5-fluoro-6-azido uridine], the IC50 in the data set with Plasmodium vivax and in the data set with Plasmodium falciparum (setting [7]) was 20 to 2000 µM throughout.

Consider `O=c1[nH]c(=O)n([C@@H]2O[C@H](CO)[C@@H](O)[C@H]2O)c(I)c1F` [Ip, 5-fluoro-6-iodo uridine], for which the IC50 with Plasmodium vivax and in the data set with Plasmodium falciparum (setting [7]) was 20 to 2000 µM throughout.
